Experimental data reported in EP0558673B1, “RETROVIRAL PROTEASE INHIBITORS” (MONSANTO COMPANY, priority 1990, dated 1992).

Experiments:
[1] = system: HIV-1; test: CEM cell assay: HIV inhibition assay of acutely infected cells (tetrazolium/MTT colorimetric); type: cell-based; details: Human immunodeficiency virus 1, CCRF-CEM, 168 h; Table 17; CEM cells acutely infected with HIV-1, 7 days, MTT readout; read-out: EC₅₀
Method: The effectiveness of the compounds listed in Table 16 were determined in the above-described enzyme assay and in a CEM cell assay.
Methods 20, 309-321 (1988).

[2] = molecular target: T1, HIV protease (Human immunodeficiency virus type 1 group M subtype B, UniProt P04585); test: HIV protease enzyme assay (fluorescence, substrate 2-aminobenzoyl-Ile-Nle-Phe(p-NO₂)-Gln-ArgNH₂); type: biochemical; details: Table 16; enzyme 12.3 nanomolar, substrate 80 µM, pH 6.4, ambient temperature; read-out: IC₅₀
T1 construct: final enzyme concentration of 12.3 nanomolar, based on a molecular weight of 10,780
Excerpt: The compounds of the present invention are effective HIV protease inhibitors. Utilizing an enzyme assay as described below, the compounds set forth in the examples herein disclosed inhibited the HIV enzyme. The preferred compounds of the present invention and their calculated IC₅₀ (inhibiting concentration 50%, i.e., the concentration at which the inhibitor compound reduces enzyme activity by 50%) values are shown in Table 16. The enzyme method is described below. The substrate is 2-aminobenzoyl-Ile-Nle-Phe(p-NO₂)-Gln-ArgNH₂. The positive control is MVT-101 (Miller, M. et al, Science, 246, 1149 (1989)] The assay conditions are as follows: Assay buffer: 20 mM sodium phosphate, pH 6.4 20% glycerol 1 mM EDTA 1 mM DTT 0.1% CHAPS
The above described substrate is dissolved in DMSO, then diluted 10 fold in assay buffer. Final substrate concentration in the assay is 80 µM.
HIV protease is diluted in the assay buffer to a final enzyme concentration of 12.3 nanomolar, based on a molecular weight of 10,780.
The final concentration of DMSO is 14% and the final concentration of glycerol is 18%. The test compound is dissolved in DMSO and diluted in DMSO to 10x the test concentration; 10µl of the enzyme preparation is added, the materials mixed and then the mixture is incubated at ambient temperature for 15 minutes. The enzyme reaction is initiated by the addition of 40µl of substrate. The increase in fluorescence is monitored at 4 time points (0, 8, 16 and 24 minutes) at ambient temperature. Each assay is carried out in duplicate wells.

| SMILES | EC50 [1] | IC50 [2] |
| --- | --- | --- |
| CC(C)CCN(C[C@@H](O)[C@H](Cc1ccccc1)NC(=O)[C@@H](NS(=O)(=O)CCc1ccccc1)C(C)C)C(=O)NC(C)(C)C (relative stereo) [Compound 2, 3-Thia-4,7,11-triazadodecan-12-amide, N-(1,1-dimethylethyl)-5-(1-methylethyl)-9-hydroxy-11-(3-methylbutyl)-6-oxo-8-(phenylmethyl)-1-phenyl-, 2,2-dioxide-,[5S-,(5R*,8R*,9S*)]] | 440 nM | 29 nM |
| CC(C)CCN(C[C@@H](O)[C@H](Cc1ccccc1)NC(=O)[C@@H](NS(=O)(=O)CCc1ccccc1)C(C)(C)C)C(=O)NC(C)(C)C (relative stereo) [Compound 1, 3-Thia-4,7,11-triazadodecan-12-amide, N,5-bis(1,1-dimethylethyl)-9-hydroxy-11-(3-methylbutyl)-6-oxo-8-(phenylmethyl)-1-phenyl-, 2,2-dioxide-,5S-,(5R*,8R*,9S*)]] | 510 nM | 22 nM |
| CC(C)CCN(C[C@@H](O)[C@H](Cc1ccccc1)NC(=O)[C@H](CC(N)=O)NS(=O)(=O)CCc1ccccc1)C(=O)NC(C)(C)C (relative stereo) [Compound 3, 3-Thia-4,7,11-triazadodecan-12-amide, N-(1,1-dimethylethyl)-5-(2-amino-2-oxo-ethyl)-9-hydroxy-11-(3-methylbutyl)-6-oxo-8-(phenylmethyl)-1-phenyl-, 2,2-dioxide-,[5S-,(5R*,8R*,9S*)]] | – | 24 nM |
